Assay type in all cases: biochemical
One assay concerns the target T1, SAPK3/p38g (Homo sapiens, UniProt P53778).
T1 sequence (P53778 1-367): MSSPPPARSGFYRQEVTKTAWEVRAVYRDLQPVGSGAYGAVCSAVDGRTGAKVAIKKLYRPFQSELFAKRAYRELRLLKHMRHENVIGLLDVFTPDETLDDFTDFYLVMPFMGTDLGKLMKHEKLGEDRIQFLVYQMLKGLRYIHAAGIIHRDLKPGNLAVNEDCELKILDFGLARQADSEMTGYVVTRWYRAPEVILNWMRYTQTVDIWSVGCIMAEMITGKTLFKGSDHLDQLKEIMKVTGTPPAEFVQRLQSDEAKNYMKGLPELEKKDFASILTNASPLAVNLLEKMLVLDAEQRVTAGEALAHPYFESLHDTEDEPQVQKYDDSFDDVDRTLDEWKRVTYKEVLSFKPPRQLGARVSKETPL
Description: SAPK3/p38g 33P kinase assay. The conditions noted are these: read-out: SAPK3/p38g activity as percentage of control without inhibitor. As for the experimental part: (§1) All assays (25.5 μl) were carried out at room temperature (21° C.) and were linear with respect to time and enzyme concentrations under the conditions used. Assays were performed for 30 minutes except assays for LCK and PKB which were performed for 15 minutes using Multidrop Micro reagent dispensers (Thermo Electron Corporation, Waltham, Mass. 02454, USA) in a 96-well format. The concentration of […] [γ-^33P] ATP (800 cpm/pmol) in the assays was one of three concentrations (5, 20 or 50 μM) in order to be at or below Km for ATP for the enzyme. Assays were initiated with MgATP and stopped by addition of 5 μl of 0.5M orthophosphoric acid. Assays were then harvested onto P81 filterplates using a unifilter harvester (PerkinElmer, Boston, Mass. 02118, USA), with a wash buffer of 50 mM orthophosphoric acid. Filterplates were then air dried overnight. 10 μl of Microscint O was added per well prior to counting for radioactivity.
(§2) MKK1, JNK/SAPK1c, SAPK2a/p38, SAPK2b/p38β2, SAPK3/p38γ, SAPK4/p38δ, MAPK2/ERK2, MAPKAP-K1β, MAPKAP-K2, MSK1, PRAK, PKA, PKCα, PDK1, SGK, p70S6K, GSK3β, ROCK-II, PRK2, AMPK, CHK1, CHK2, CK2, PHK, LCK, were assayed according to Davies et al., (Davies, S. P., Reddy, H., Caivano, M. and Cohen, P. Biochem. J. 351, 95-105, 2000.
(§3) CSK and CDK2/cyclinA, were assayed according to Bain et al. (Bain J, McLauchlan H, Elliott M, Cohen P. Biochem J. 371, 199-204, 2003., except that ATP concentrations were either 5, 20 or 50 micromolar so that they were at or below the Km for ATP. The ATP concentrations used were as follows, 5 μM for assays of MKK1, SAPK3, SAPK4, GSK3β, PRK2 CK2 20 μm for assays of JNK, SAPK2β, MAPKAP-K2, MSK1, PRAK, PKA, […], PDK1, SGK, p70S6K, ROCK-II, CHK1, CHK2, CSK, CDK2, and 50 μM for assays of SAPK2a, MAPK2/ERK2, AMPK, LCK, PHK and MAPKAP-K1β.

A further assay has as its target PKA (Homo sapiens, UniProt P17612). Description: PKA 33P kinase assay. The conditions noted are these: read-out: PKA activity as percentage of control without inhibitor; for remaining activity at 1 µM: inhibitor 1 μM; for remaining activity at 10 µM: inhibitor 10 μM. As for the experimental part: as §1, §2, §3
A further assay concerns the target T2, PDK1 (Homo sapiens, UniProt O15530).
T2 sequence (O15530 1-556): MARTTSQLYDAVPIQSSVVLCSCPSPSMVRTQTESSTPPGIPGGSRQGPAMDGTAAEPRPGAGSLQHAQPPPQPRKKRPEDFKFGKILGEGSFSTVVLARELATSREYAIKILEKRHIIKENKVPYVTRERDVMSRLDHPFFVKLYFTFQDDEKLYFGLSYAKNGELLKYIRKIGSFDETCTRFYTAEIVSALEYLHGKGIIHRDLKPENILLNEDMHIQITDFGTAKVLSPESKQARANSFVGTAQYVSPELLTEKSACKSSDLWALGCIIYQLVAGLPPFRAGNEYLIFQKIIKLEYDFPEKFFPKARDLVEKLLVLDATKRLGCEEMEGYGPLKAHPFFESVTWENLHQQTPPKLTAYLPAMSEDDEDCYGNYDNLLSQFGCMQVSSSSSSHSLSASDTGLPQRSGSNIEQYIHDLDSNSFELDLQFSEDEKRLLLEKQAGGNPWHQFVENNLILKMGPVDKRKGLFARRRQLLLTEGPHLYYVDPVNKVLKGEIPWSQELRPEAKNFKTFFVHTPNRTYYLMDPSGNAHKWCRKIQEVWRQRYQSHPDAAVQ
Description: PDK1 33P kinase assay. The conditions noted are these: for remaining activity at 1 µM: inhibitor 1 μM, read-out: PDKI activity as percentage of control without inhibitor; for remaining activity at 10 µM: inhibitor 10 μM, read-out: PDK1 activity as percentage of control without inhibitor. The procedure: as §1, §2, §3

A further assay has as its target T3, SGK (Homo sapiens, UniProt O00141).
T3 sequence (O00141 1-431): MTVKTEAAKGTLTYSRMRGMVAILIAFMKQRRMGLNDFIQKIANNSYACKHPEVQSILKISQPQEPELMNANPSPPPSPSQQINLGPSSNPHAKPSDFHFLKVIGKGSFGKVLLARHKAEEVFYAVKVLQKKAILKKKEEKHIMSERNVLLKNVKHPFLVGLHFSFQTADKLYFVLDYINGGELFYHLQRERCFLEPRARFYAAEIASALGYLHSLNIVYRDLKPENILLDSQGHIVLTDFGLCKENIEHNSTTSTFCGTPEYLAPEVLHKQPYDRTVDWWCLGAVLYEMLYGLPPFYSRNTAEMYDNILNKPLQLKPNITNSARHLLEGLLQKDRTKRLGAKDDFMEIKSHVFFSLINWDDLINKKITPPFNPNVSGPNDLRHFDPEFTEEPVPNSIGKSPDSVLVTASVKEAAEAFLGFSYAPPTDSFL
Description: SGK 33P kinase assay. The conditions noted are these: read-out: SGK activity as percentage of control without inhibitor. As for the experimental part:
as §1, §2, §3

Read-outs that look alike come from different tables or passages of the source.

As for `COc1ccc2c3c([nH]c2c1)C(C)=NCC3` [Harmaline], the remaining activity at 1 µM at SAPK3/p38g (inhibitor 1 μM) is 98%; on PKA, 70%; on PDK1, 100%; at SGK (inhibitor 1 μM), 14%. The remaining activity at 10 µM was determined as 94% at SAPK3/p38g (inhibitor 10 μM), 86% on PKA, 95% at PDK1 and 84% on SGK (inhibitor 10 μM).
In the case of `CC1=NCCc2c1[nH]c1cc(O)ccc21` [Harmalol], the remaining activity at 1 µM at SAPK3/p38g (inhibitor 1 μM) worked out at 98%; at PKA, 90%; at PDK1 it was 88%; at SGK (inhibitor 1 μM), 62%. Moreover, the remaining activity at 10 µM worked out at 92% on SAPK3/p38g (inhibitor 10 μM), 75% at PKA, 96% at PDK1 and 45% at SGK (inhibitor 10 μM).
With `COc1ccc2c(c1)[nH]c1c(C)nccc12` [Harmine], the remaining activity at 1 µM on SAPK3/p38g was found to be 82%; on PKA, 82%; at PDK1, 89%; on SGK it was 66%. The remaining activity at 10 µM at SAPK3/p38g was 72%; at PKA, 92%; on PDK1 it was 95%; at SGK, 62%.

For the origin of these results see patent US20100063085A1, “METHOD OF TREATING LEARNING IMPAIRMENT IN DOWN'S SYNDROME SUBJECTS” (University Court of The University of Dundee, priority 2008, published 2010).
